How the values were obtained:
[1] = biological target: T1, recombinant HDAC6 (Homo sapiens, UniProt Q9UBN7); assay: HDAC6 inhibition assay (Ac-peptide-AMC fluorescence); format: biochemical
T1 construct: purchased BPS Bioscience
T1 sequence (Q9UBN7 1-1215): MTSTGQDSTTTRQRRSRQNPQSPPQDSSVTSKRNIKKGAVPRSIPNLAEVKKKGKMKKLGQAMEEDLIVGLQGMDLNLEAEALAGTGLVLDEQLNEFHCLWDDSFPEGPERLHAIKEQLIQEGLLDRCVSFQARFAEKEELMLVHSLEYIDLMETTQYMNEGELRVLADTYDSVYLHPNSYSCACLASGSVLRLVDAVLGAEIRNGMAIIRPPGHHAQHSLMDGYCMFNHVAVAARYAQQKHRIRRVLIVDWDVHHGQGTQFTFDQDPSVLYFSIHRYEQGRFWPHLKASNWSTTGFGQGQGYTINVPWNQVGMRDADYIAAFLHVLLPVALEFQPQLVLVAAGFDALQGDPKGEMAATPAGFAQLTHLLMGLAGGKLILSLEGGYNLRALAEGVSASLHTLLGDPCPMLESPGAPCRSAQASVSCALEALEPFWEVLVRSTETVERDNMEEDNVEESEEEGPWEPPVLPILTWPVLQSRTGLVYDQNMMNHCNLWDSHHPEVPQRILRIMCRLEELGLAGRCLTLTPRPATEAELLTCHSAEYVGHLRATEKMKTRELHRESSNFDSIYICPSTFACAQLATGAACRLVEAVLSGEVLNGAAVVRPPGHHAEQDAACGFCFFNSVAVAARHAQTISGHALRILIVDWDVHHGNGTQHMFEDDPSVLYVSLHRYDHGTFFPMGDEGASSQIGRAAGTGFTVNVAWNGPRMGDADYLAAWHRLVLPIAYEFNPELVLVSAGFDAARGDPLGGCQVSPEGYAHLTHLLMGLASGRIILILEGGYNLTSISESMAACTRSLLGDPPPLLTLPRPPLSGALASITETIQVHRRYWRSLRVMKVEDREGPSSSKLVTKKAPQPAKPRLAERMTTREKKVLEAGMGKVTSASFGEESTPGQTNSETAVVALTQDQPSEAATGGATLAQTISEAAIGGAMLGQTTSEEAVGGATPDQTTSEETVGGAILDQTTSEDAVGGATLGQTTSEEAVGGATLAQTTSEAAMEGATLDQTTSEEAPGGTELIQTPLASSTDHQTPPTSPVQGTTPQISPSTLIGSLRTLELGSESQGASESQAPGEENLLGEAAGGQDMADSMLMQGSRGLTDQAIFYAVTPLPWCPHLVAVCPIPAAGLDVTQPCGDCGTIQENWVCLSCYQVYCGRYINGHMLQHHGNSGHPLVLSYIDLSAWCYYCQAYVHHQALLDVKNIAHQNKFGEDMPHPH
Experimental: The in vitro HDAC inhibition assays were carried out by Sundia MediTech Co. Ltd. in Shanghai, China. […] Reactions were stopped with trypsin, and the samples were incubated for another 90 min at 37 °C. […] IC50 values were obtained using GraphPad Prism software.

[2] = test system: MDA-MB-468 cells; assay: MTT cell viability assay, MDA-MB-468; details: Homo sapiens, MDA-MB-468, 72 h, read-out: IC50 MDA-MB-468
Experimental: The viability assay was measured by a 3-(4,5-dimethylthiazol-2-yl)−2,5-diphenyltetrazolium bromide (MTT) assay.
In brief, cells were seeded at a density of 6,000 cells in 96-well plates and cultured overnight. […] After aspiration of the medium, the formazan crystals were dissolved in 100 μL of DMSO. The absorbance at 490 nm was measured using a microplate reader (BioTek). All these analyses were performed at least three times.

[3] = test system: MDA-MB-436, MDA-MB-231, and MDA-MB-468 cells; assay: Colony formation assay; format: cell-based, human; details: approximately 14 days
Experimental: MDA-MB-231, MDA-MB-436 and MDA-MB-468 cells were seeded at a density of 2,000 cells in 6-well plates and cultured overnight. […] The cells were fixed with 4% paraformaldehyde (Merck) for 1 h at room temperature and stained with 0.1% crystal violet (Beyotime Biotechnology) for 30 min. Under an inverted phase contrast microscope (Leica Microsystems, Heidelberg, Germany), cell colonies were photographed at 5× magnification. All these analyses were performed at least three times.

[4] = test system: H3K9 acetylation; assay: Western blot of histone H3 lysine 9 acetylation in TNBC cells; format: cell-based, human; details: TNBC cell lines, 48 h
Experimental: Western blot analysis was performed as previously described, and all western blot analyses were performed at least three times.
Western blot analysis was performed as previously described. Briefly, whole cell or tissue lysates were prepared using ice-cold Nonidet P-40 buffer mixed with protease and phosphatase inhibitors (Roche, IN, USA) and centrifuged at 14,000 × g at 4 °C for 10 min. The protein lysates were fractionated by sodium dodecyl sulfate–polyacrylamide gel electrophoresis (SDS–PAGE) and transferred to polyvinylidene fluoride (PVDF) membranes (Merck, Darmstadt, Germany). Membranes were incubated in 1× TBST buffer containing 5% nonfat powdered milk at room temperature for 2 h. The indicated primary antibody was incubated with PVDF membranes, followed by a washing step using 1× TBST and a secondary antibody conjugated to HRP. Signal detection was carried out using the Western ECL Substrate kit (Bio-Rad, Hercules, CA, USA). […]

IC50 [1] [nM] | IC50 [2] [nM] | Compound | colony formation of TNBC cells [3] | acetylation of lysine 9 of histone H3 (H3K9) [4]
> 10000 | 270 ± 110 | Nc1cc(F)ccc1NC(=O)/C=C/c1ccc(CN2CCN(C(=O)c3cc(Cc4n[nH]c(=O)c5ccccc45)ccc3F)CC2)cc1 [Compound B102] | reduction in colony formation | elevated the acetylation
> 10000 | 1270 ± 580 | Nc1cc(F)ccc1NC(=O)CCc1ccc(CN2CCN(C(=O)c3cc(Cc4n[nH]c(=O)c5ccccc45)ccc3F)CC2)cc1 [Compound B302] | reduction in colony formation | elevated the acetylation
